Source: the NIST ThermoML archive (doi:10.1016/j.fluid.2007.07.029)
Numbers after ± are expanded uncertainties.

Settings: Liquid, Transpiration method

CCCCC(CC)C(=O)OCC(COC(=O)C(CC)CCCC)(COC(=O)C(CC)CCCC)COC(=O)C(CC)CCCC (stereo not given) [pentaerythritol tetra(2-ethylhexanoate)]
Settings | vapor or sublimation pressure [kPa]
353.96 K | 1.27e-07 ± 8.2e-08
363.89 K | 3.67e-07 ± 9.2e-08
373.81 K | 1.07e-06 ± 1.4e-07
383.56 K | 3.37e-06 ± 3.3e-07
393.56 K | 8.94e-06 ± 8.1e-07
403.44 K | 2.37e-05 ± 2.1e-06
413.44 K | 5.82e-05 ± 5.1e-06
423.4 K | 0.000133 ± 1.2e-05
433.18 K | 0.000287 ± 2.5e-05
443.17 K | 0.000644 ± 5.6e-05

CCCCCCC(=O)OCC(COC(=O)CCCCCC)(COC(=O)CCCCCC)COC(=O)CCCCCC [pentaerythritol tetraheptanoate]
Settings | vapor or sublimation pressure [kPa]
373.81 K | 2.58e-07 ± 8.8e-08
393.48 K | 2.61e-06 ± 2.7e-07
413.4 K | 2.2e-05 ± 2e-06
433.36 K | 0.000131 ± 1.2e-05

CCCCCCCCC(=O)OCC(COC(=O)CCCCCCCC)(COC(=O)CCCCCCCC)COC(=O)CCCCCCCC [pentaerythritol tetranonanoate]
Settings | vapor or sublimation pressure [kPa]
394.55 K | 5.57e-08 ± 8e-08
414.72 K | 5.21e-07 ± 9.9e-08
435.03 K | 3.98e-06 ± 3.8e-07
435.11 K | 3.97e-06 ± 3.8e-07
455.36 K | 2.82e-05 ± 2.5e-06
476.47 K | 0.000174 ± 1.5e-05

CCCCC(=O)OCC(COC(=O)CCCC)(COC(=O)CCCC)COC(=O)CCCC [pentaerythritol tetrapentanoate]
Settings | vapor or sublimation pressure [kPa]
334.02 K | 2.55e-07 ± 8.7e-08
353.94 K | 2.88e-06 ± 2.9e-07
373.62 K | 2.61e-05 ± 2.3e-06
393.34 K | 0.000166 ± 1.5e-05
413.08 K | 0.000935 ± 8.2e-05
